Data on 2 molecules can be found in patent US12011427B2, “Methods of treating cancer” (Inspirna, Inc., priority 2019, dated 2024).

Data set [1] concerns advanced gastrointestinal tumors. The experiment in a line: RGX-202 monotherapy or combination with FOLFIRI in subjects with advanced gastrointestinal tumors. In kind it is in vivo, human. As to the method:
Method: Subjects with advanced gastrointestinal tumors (e.g., locally advanced and unresectable, or metastatic) were administered multiple doses of orally administered RGX-202 as a monotherapy or in combination with irinotecan, folinic acid, and fluorouracil. In the monotherapy arm of the study, RGX-202 was administered orally twice or three times daily on days 1-28 of each 28-day cycle. The dose regimen was dependent on the cohort in which the patient was enrolled. In the combination arm of the study, RGX-202 was administered in the same way as described for the monotherapy arm in combination with FOLFIRI. FOLFIRI was administered by intravenous administration of irinotecan (180 mg/m^2) over 90 minutes concurrently with intravenous administration of folinic acid (400 mg/m^2) over 2 hours, followed by fluorouracil (5-FU) (400 mg/m^2) intravenous bolus and then 5-FU (2400 mg/m^2) intravenous infusion over 46 hours, on days 1 and 15 of each 28-day cycle. During the dose escalation, subjects were evaluated for pharmacokinetics (using the method as described in Example 1), pharmacodynamics, safety, and efficacy of the drug.

Data set [2] relates to animal models of noninsulin-dependent diabetes. To be noted: animal models of noninsulin-dependent diabetes (rats, monkeys, hamsters); cited from earlier work.
Data set [3] can be described thus: Solubility of β-GPA. The format is physicochemical.
A short description of data set [4]: β-GPA plasma pharmacokinetics after RGX-202 BID dosing. In kind it is in vivo, human. Conditions: for AUC(0-t): read-out: Average AUC0-24. The method, then: Method: Subjects were administered RGX-202 (a highly compressible salt form of β-GPA) in a regimen of 600 mg BID, 1,200 mg BID, 2,400 mg BID, or 3,600 mg BID, and plasma samples were taken from the subjects and tested using the protocol described below for levels of β-GPA over the course of 24 hours after administration.
The analyte, β-GPA, and internal standard (IS), [13C415N3]-β-GPA, are extracted from 50.0 μL of human plasma by a protein precipitation extraction procedure. The extraction procedure begins with the addition of 50.0 μL of internal standard working solution to all wells except double blanks, which receive 50.0 μL of water. Next the plate is covered and vortexed. Then 500 μL of acetonitrile/methanol (50/50, v/v) is added to all wells. Next the plate is covered, vortexed and centrifuged. Using a Tomtec Quadra 4, 200 μL of the supernatant is transferred into a new plate. Then 300 μL acetonitrile/methanol (50/50, v/v) is added to all wells. The plate is then sealed and vortexed. The extracts are chromatographed under reverse phase conditions on a Luna HPLC column 50×2.0 mm, 3 μm column using a gradient system with 10 mM ammonium acetate in water and acetonitrile. The compounds are detected and quantified by tandem mass spectrometry in positive ion mode on a MDS Sciex API 4000 equipped with a Turbo Ionspray® interface.

In data set [5] the test system is liver metastasis in gastrointestinal cancers. To be noted: particularly liver metastasis in gastrointestinal cancers; WO2014/071067; cited from earlier work.
[6] abbreviates: 1200 mg BID, human plasma, 1,200 mg BID.
Where [7] appears, read: 2400 mg BID, human plasma, 2,400 mg BID.
Setting [8] is: 3600 mg BID, human plasma, 3,600 mg BID.

The structures appear in SMILES notation. Where two headings read alike, the source gives them in different places.

As to `[H]/N=C(\N)NCCC(=O)O` [RGX-202], the “subjects exhibiting a partial response” value in data set [1] (of the 10 subjects who received the monotherapy, at 3,600 mg BID after 40 weeks) is “one”. The “subjects exhibiting stable disease” value in data set [1] (of the 10 subjects who received the monotherapy, at doses of 1,200 mg BID, 2,400 mg BID and 3,600 mg BID) was “three”. For the same molecule, the objective activity result in data set [1] (subjects with advanced gastrointestinal tumors) is on record as “activities were observed”. Besides, the dose limiting toxicity result in data set [1] (subjects with advanced gastrointestinal tumors, oral dose escalation, monotherapy or combination) is listed as “did not exhibit dose limiting toxicity”.
For `N=C(N)NCCC(=O)O` [β-GPA, β-Guanidinopropionic acid], the effect on hyperglycemia entry in data set [2] is reported as “ameliorate hyperglycemia”. Further, the “solubility in organic solvents” value in data set [3] (organic solvents) is recorded as “low solubility”. The solubility in data set [3] (water) was greater than 50 mg/mL. In addition, the Cmax in data set [4] (setting [6]) worked out at 4790 ng/mL; in data set [4] (setting [7]) it was 26800 ng/mL; in data set [4] (setting [8]) it was 47700 ng/mL; in data set [4] (human plasma, 600 mg BID), 1400 ng/mL. Moreover, the AUC(0-t) in data set [4] (setting [6]) came out at 45.2 µg·h/mL; in data set [4] (setting [7]) it was 165 µg·h/mL; in data set [4] (setting [8]), 241 µg·h/mL; in data set [4] (human plasma, 600 mg BID) it was 15.7 µg·h/mL. In addition, the “AUC Dose Acc. Ratio” value in data set [4] (human plasma, 600 mg BID) is 1.0; in data set [4] (human plasma, 1,200 mg BID), 1.4; in data set [4] (human plasma, 2,400 mg BID), 2.7; in data set [4] (human plasma, 3,600 mg BID), 2.6. Also, the “Cmax Dose Acc. Ratio” value is recorded as 1.0 in data set [4] (human plasma, 600 mg BID); 1.7 in data set [4] (human plasma, 1,200 mg BID); 4.8 in data set [4] (human plasma, 2,400 mg BID); 5.7 in data set [4] (human plasma, 3,600 mg BID). For the same molecule, the “Dose Normalized Average Cmax” value came to 1.2 ng/mL in data set [4] (human plasma, 600 mg BID); 2.0 ng/mL in data set [4] (human plasma, 1,200 mg BID); 5.6 ng/mL in data set [4] (human plasma, 2,400 mg BID); 6.6 ng/mL in data set [4] (human plasma, 3,600 mg BID). The “Dose-Normalized Average AUC0-24” value in data set [4] (human plasma, 600 mg BID) was determined as 13.1 ng·h/mL; in data set [4] (human plasma, 1,200 mg BID) it was 18.8 ng·h/mL; in data set [4] (human plasma, 2,400 mg BID), 34.3 ng·h/mL; in data set [4] (human plasma, 3,600 mg BID), 33.5 ng·h/mL. Besides, the suppression of metastasis entry in data set [5] was “effective”.

A word on the solubility: it is how much of the substance goes into solution per volume. A higher solubility goes with a readily soluble substance. In general, Cmax refers to the peak of the concentration-time curve.
